Data published in the NIST ThermoML archive (doi:10.1021/je020053r).
Numbers after ± are expanded uncertainties.

Experiments:
[1] = 293.15 K; 101.33 kPa; Liquid
[2] = refractive index (Na D-line) (dimensionless); conditions: 293.15 K; 101.33 kPa; Liquid; Standard Abbe refractometry

Structure (SMILES)	mass density [1] [kg/m3]	refractive index [2]
O=Cc1ccco1 [2-furaldehyde]	1128.5 ± 15	–
CCCCCC [hexane]	659.3 ± 5	–
O [water]	–	1.333 ± 0.0007
